Patent US20040156869A1, “2-substituted quinazolin-4-ylamine analogues” (Neurogen Corporation, priority 2002, published 2004)

Biological target: human capsaicin receptor (VR1) (Homo sapiens, UniProt Q8NER1)
Assay: Capsaicin receptor binding assay ([3H]RTX competition, VR1-transfected HEK293 membranes)

Sequence of human capsaicin receptor (VR1) (Q8NER1 whole entry): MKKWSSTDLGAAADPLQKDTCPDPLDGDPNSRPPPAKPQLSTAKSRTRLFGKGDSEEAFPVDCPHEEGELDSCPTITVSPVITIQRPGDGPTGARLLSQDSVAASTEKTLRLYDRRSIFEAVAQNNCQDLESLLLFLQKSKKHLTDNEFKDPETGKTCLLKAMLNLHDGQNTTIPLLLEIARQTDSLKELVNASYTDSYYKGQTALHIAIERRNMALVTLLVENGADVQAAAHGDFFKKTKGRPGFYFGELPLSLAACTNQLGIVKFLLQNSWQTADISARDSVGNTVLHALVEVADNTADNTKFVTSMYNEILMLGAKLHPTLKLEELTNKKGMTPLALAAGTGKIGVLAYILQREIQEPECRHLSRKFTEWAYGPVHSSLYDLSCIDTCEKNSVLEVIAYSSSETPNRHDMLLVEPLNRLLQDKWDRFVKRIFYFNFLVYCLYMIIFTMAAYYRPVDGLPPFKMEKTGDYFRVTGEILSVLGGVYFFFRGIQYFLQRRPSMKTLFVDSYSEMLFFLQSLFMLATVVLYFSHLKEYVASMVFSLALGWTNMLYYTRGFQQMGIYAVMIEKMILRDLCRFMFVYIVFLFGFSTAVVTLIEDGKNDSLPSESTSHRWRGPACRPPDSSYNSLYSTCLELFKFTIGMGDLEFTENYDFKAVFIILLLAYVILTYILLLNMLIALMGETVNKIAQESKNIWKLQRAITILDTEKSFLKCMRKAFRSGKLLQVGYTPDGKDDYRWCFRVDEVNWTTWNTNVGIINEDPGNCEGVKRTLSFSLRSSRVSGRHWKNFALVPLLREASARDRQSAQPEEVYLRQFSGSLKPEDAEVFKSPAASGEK

Ki [nM]	SMILES
< 1000	CC(C)c1ccc(Nc2nc(CN3CCO[C@@H](C)C3)nc3cc(-c4ncccc4C(F)(F)F)ccc23)cc1 [Compound 687, (S)-(4-Isopropyl-phenyl)-[2-(2-methyl-morpholin-4-ylmethyl)-7-(3-trifluoromethyl-pyridin-2-yl)-quinazolin-4-yl]-amine]
< 1000	COC(=O)CCc1nc(Nc2ccc(C(F)(F)F)cc2)c2ccc(-c3ncccc3C(F)(F)F)cc2n1 [Compound 17, 3-[4-(4-Trifluoromethyl-phenylamino)-7-(3-trifluoromethyl-pyridin-2-yl)-quinazolin-2-yl]-propionic acid methyl ester]
< 1000	COCc1nc(Nc2ccc(C(C)(C)C)nc2)c2ccc(-c3ncccc3C)nc2n1 [Compound 200, (6-tert-Butyl-pyridin-3-yl)-[2-methoxymethyl-7-(3-methyl-pyridin-2-yl)-pyrido[2,3-d]pyrimidin-4-yl]-amine]
< 1000	CC(C)c1ccc(Nc2nc(CN3C[C@H](C)O[C@@H](C)C3)nc3cc(-c4ncccc4C(F)(F)F)ccc23)cc1 [Compound 640, (S,S)-[2-(2,6-Dimethyl-morpholin-4-ylmethyl)-7-(3-trifluoromethyl-pyridin-2-yl)-quinazolin-4-yl]-(4-isopropyl-phenyl)-amine]
< 1000	COCc1cc(Nc2ccc(Cl)c(F)c2)c2ccc(-c3ncccc3C(F)(F)F)nc2n1 [Compound 304, (4-Chloro-3-fluoro-phenyl)-[2-methoxymethyl-7-(3-trifluoromethyl-pyridin-2-yl)-[1,8]naphthyridin-4-yl]-amine]
< 1000	CC(C)(C)c1ccc(Nc2nc(CN3CCC[C@@H]3C(=O)O)nc3cc(-c4ncccc4C(F)(F)F)ccc23)cc1 [Compound 745, (R)-1-[4-(4-tert-Butyl-phenylamino)-7-(3-trifluoromethyl-pyridin-2-yl)-quinazolin-2-ylmethyl]-pyrrolidine-2-carboxylic acid]
< 1000	FC(F)(F)c1ccc(Nc2nc(CN3CCSCC3)nc3cc(-c4ncccc4C(F)(F)F)ccc23)cc1 [Compound 548, [2-Thiomorpholin-4-ylmethyl-7-(3-trifluoromethyl-pyridin-2-yl)-quinazolin-4-yl]-(4-trifluoromethyl-phenyl)-amine]
< 1000	FC(F)(F)c1ccc(Nc2nc(CN3CCCCCC3)nc3cc(-c4ncccc4C(F)(F)F)ccc23)cn1 [Compound 361, [2-Azepan-1-ylmethyl-7-(3-trifluoromethyl-pyridin-2-yl)-quinazolin-4-yl]-(6-trifluoromethyl-pyridin-3-yl)-amine]
< 1000	CC1CC(C)CC(NC(=O)c2nc(Nc3ccc(C(F)(F)F)cc3)c3ccc(-c4ncccc4C(F)(F)F)nc3n2)C1 (centres unmarked) [Compound 470, 4-(4-Trifluoromethyl-phenylamino)-7-(3-trifluoromethyl-pyridin-2-yl)-pyrido[2,3-d]pyrimidine-2-carboxylic acid (3,5-dimethyl-cyclohexyl)-amide]
< 1000	COCc1nc(Nc2ccc(S(=O)(=O)C(F)(F)F)cc2)c2ccc(-c3ncccc3C(F)(F)F)cc2n1 [Compound 35, [2-Methoxymethyl-7-(3-trifluoromethyl-pyridin-2-yl)-quinazolin-4-yl]-(4-trifluoromethanesulfonyl-phenyl)-amine]
< 1000	COCc1nc2nc(-c3ncccc3C(F)(F)F)ccc2c(Nc2ccc(C(F)(F)F)cc2)c1C(=O)OC [Compound 299, 2-Methoxymethyl-4-(4-trifluoromethyl-phenylamino)-7-(3-trifluoromethyl-pyridin-2-yl)-[1,8]naphthyridine-3-carboxylic acid methyl ester]
< 1000	COCc1nc(Nc2ccc(C(C)(C)C)cc2)c2ncc(-c3ncccc3Cl)cc2n1 [Compound 65, (4-tert-Butyl-phenyl)-[7-(3-chloro-pyridin-2-yl)-2-methoxymethyl-pyrido[3,2-d]pyrimidin-4-yl]-amine]
< 1000	C[C@@H]1CN(Cc2nc(Nc3ccc(C(C)(C)C)cc3)c3ccc(-c4cncnc4)cc3n2)C[C@H](C)O1 [Compound 677, (4-tert-Butyl-phenyl)-[2-(2,6-dimethyl-morpholin-4-ylmethyl)-7-pyrimidin-5-yl-quinazolin-4-yl]-amine (cis)]
< 1000	C[C@@H]1CN(Cc2nc(Nc3ccc(C(C)(C)C)cc3)c3ccc(-c4ccccn4)cc3n2)C[C@H](C)O1 [Compound 636, (4-tert-Butyl-phenyl)-[2-(2,6-dimethyl-morpholin-4-ylmethyl)-7-pyridin-2-yl-quinazolin-4-yl]-amine (cis)]
< 1000	CCCN(CC)Cc1nc(Nc2ccc(S(=O)(=O)N3CCOCC3)cc2)c2ccc(-c3ncccc3C(F)(F)F)cc2n1 [Compound 724, [2-[(Ethyl-propyl-amino)-methyl]-7-(3-trifluoromethyl-pyridin-2-yl)-quinazolin-4-yl]-[4-(morpholine-4-sulfonyl)-phenyl]-amine]
< 1000	CN1C(C)(C)CC(NC(=O)c2nc(Nc3ccc(C(F)(F)F)cc3)c3ccc(-c4ncccc4C(F)(F)F)nc3n2)CC1(C)C [Compound 447, 4-(4-Trifluoromethyl-phenylamino)-7-(3-trifluoromethyl-pyridin-2-yl)-pyrido[2,3-d]pyrimidine-2-carboxylic acid (1,2,2,6,6-pentamethyl-piperidin-4-yl)-amide]
< 1000	CN(C)CCOCc1cc(Nc2ccc(C(F)(F)F)cc2)c2ccc(-c3ncccc3C(F)(F)F)nc2n1 [Compound 309, [2-(2-Dimethylamino-ethoxymethyl)-7-(3-trifluoromethyl-pyridin-2-yl)-[1,8]naphthyridin-4-yl]-(4-trifluoromethyl-phenyl)-amine]
< 1000	CCOCc1nc(Nc2ccc(C(F)(F)F)cc2)c2ccc(-c3ncccc3C(F)(F)F)nc2n1 [Compound 223, [2-Ethoxymethyl-7-(3-trifluoromethyl-pyridin-2-yl)-pyrido[2,3-d]pyrimidin-4-yl]-(4-trifluoromethyl-phenyl)-amine]
< 1000	Cc1cccnc1-c1ccc2c(Nc3ccc(C(F)(F)F)cc3)nc(C(=O)O)nc2n1 [Compound 205, 7-(3-Methyl-pyridin-2-yl)-4-(4-trifluoromethyl-phenylamino)-pyrido[2,3-d]pyrimidine-2-carboxylic acid]
< 1000	CCCCCCCCNCc1nc(Nc2ccc(C(F)(F)F)cc2)c2ccc(-c3ncccc3C(F)(F)F)cc2n1 [Compound 540, [2-Octylaminomethyl-7-(3-trifluoromethyl-pyridin-2-yl)-quinazolin-4-yl]-(4-trifluoromethyl-phenyl)-amine]
< 1000	FC(F)(F)c1ccc(Nc2nc(COC3CCOCC3)nc3cc(-c4ncccc4C(F)(F)F)ccc23)cn1 [Compound 154, [2-(Tetrahydro-pyran-4-yloxymethyl)-7-(3-trifluoromethyl-pyridin-2-yl)-quinazolin-4-yl]-(6-trifluoromethyl-pyridin-3-yl)-amine]
< 1000	COCCNC(=O)c1nc(Nc2ccc(C(F)(F)F)cc2)c2ccc(-c3ncccc3C(F)(F)F)cc2n1 [Compound 762, 4-(4-Trifluoromethyl-phenylamino)-7-(3-trifluoromethyl-pyridin-2-yl)-quinazoline-2-carboxylic acid (2-methoxy-ethyl)-amide]

SMILES	Ki [nM]
CC(C)COCc1nc(Nc2ccc(C(F)(F)F)cc2)c2ccc(-c3ncccc3Cl)nc2n1 [Compound 176, [7-(3-Chloro-pyridin-2-yl)-2-isobutoxymethyl-pyrido[2,3-d]pyrimidin-4-yl]-(4-trifluoromethyl-phenyl)-amine]	< 1000
